Measured values from US10201157B2 (priority 2013, dated 2019).
Where two headings read alike, the source gives them in different places.

Tests used:
[1] = test system: Pyricularia oryzae; format: cell-based; conditions: MTP, 7 days after inoculation
[2] = test system: Microdochium nivale; assay: B.2.3 microtest, activity against Microdochium nivale; format: cell-based; conditions: MTP, 7 days after inoculation
[3] = test system: Rhizoctonia solani; assay: B.2.4 microtest, activity against Rhizoctonia solani; format: cell-based; conditions: MTP, 7 days after inoculation
[4] = test system: wireworm (Melanotus communis); assay: Test B.1.1 control of wireworm, direct contact (dip) method; format: in vivo; conditions: mortality 3 DAT
Method: For evaluating control of wireworm (Melanotus communis) through direct contact method, the individual insects were dipped directly into compound solution.
The compounds or mixtures were dissolved in acetone at different concentrations. The compounds or mixtures were formulated using a solution containing 50% (v/v) acetone in water with 0.02 wt % Kinetic®.
For the experimental mixtures, identical volumes of both mixing partners were mixed together to achieve the desired respective concentrations. Wireworms were dipped directly into solution for three seconds and then allowed to air dry on filter paper.
About 11 cm^3 of water-moistened loamy sand was dispensed into each 16-cm^2 cell of a 32-cell rearing tray. One treated wireworm larva was infested into each cell along with two germinating wheat seeds. Cells were then covered with adhesive bio-assay tray lids. Each cell was a replicate and replication was 10×. After infestation, the test was maintained in an incubator at 26±1° C. in the dark. Mortality (dead+moribund insects) was evaluated 3 days after treatment (DAT) and mean percent mortality was calculated relative to the untreated control.

[5] = test system: western corn rootworm (Diabrotica virgifera virgifera); assay: Test B.1.2 control of western corn rootworm, maximum exposure to treated soil; format: in vivo; conditions: mortality 3 DAI
From the text: For evaluating control of western corn rootworm (Diabrotica virgifera virgifera) through maximum exposure method, the insects were exposed to treated soil.
The compounds or mixtures were first dissolved in acetone, and then mixed with soil to obtain the desired different ppm concentrations (w/w) of compound/soil or mixture/soil. For experimental mixtures, identical volumes of both mixing partners were mixed together to achieve the desired respective concentrations. Treatments were applied in solution to sifted (#10 sieve) loamy sand in a plastic bag. Treatments were thoroughly incorporated by sealing and shaking each bag by hand and allowing the solution to soak through the soil mass for at least 10 minutes. Bags were then unsealed and kept open in a fume hood overnight to evaporate the solvent from the soil.
One day after treatment (DAT) water for moisture and water-soaked millet seed as a food source were added to each bag and incorporated thoroughly. About 11 cm^3 of the millet and soil mixture was dispensed into a 1-oz. plastic cup. Each cup was infested with 10 western corn rootworm second-instar larvae and covered. Each cup was a replicate and replication was 3×. The test was maintained in an incubator at 26±1° C. in the dark. Mortality (dead+moribund insects) was evaluated 3 days after infestation (DAI) and mean percent mortality was calculated relative to the untreated control.

[6] = test system: black cutworm (Agrotis ipsilon); assay: Test B.1.3 control of black cutworm, direct contact (dip) method; format: in vivo; conditions: for Average Control % 1 DAT: mortality 1 DAT; for Average Control % 5 DAT: mortality 5 DAT
Method: For evaluating control of black cutworm (Agrotis ipsilon) through direct contact method, the individual insects were dipped directly into compound solution.
The compounds or mixtures were dissolved in acetone at different concentrations. The compounds or mixtures were formulated using a solution containing 50% (v/v) acetone in water with 0.02 wt % Kinetic®. For experimental mixtures, identical volumes of both mixing partners were mixed together to achieve the desired respective concentrations. Second-instar black cutworms were dipped directly into solution for three seconds and then allowed to air dry on filter paper. One treated black cutworm larva was infested into each 16-cm^2 cell of a 32-cell rearing tray along with the excised shoot of a corn plant and a moistened cotton wick. Cells were then covered with adhesive bio-assay tray lids. Each cell was a replicate and replication was 16×. After infestation, the test was maintained in an incubator at 25.5±1° C. and a 14L:10D light cycle. Mortality (dead+moribund insects) was evaluated 1 and 5 days after treatment (DAT) and mean percent mortality was calculated relative to the untreated control.

[7] = test system: seedcorn maggot (Della platura); assay: Test B.1.4 control of seedcorn maggot, maximum exposure to treated soil; format: in vivo; conditions: mortality 2 DAT
From the text: For evaluating control of seedcorn maggot (Della platura) through maximum exposure, the insects were exposed to treated soil.
The compounds or mixtures were first dissolved in acetone, and then mixed with soil to obtain the desired different ppm concentrations (w/w) of compound/soil or mixture/soil. For experimental mixtures, identical volumes of both mixing partners were mixed together to achieve the desired respective concentrations. Treatments were applied in solution to dry, sifted (#10 sieve) play sand in a glass jar. Treatments were thoroughly incorporated by capping and shaking each jar by hand and allowing the solution to soak through the sand mass for at least 10 minutes. The jars were then uncapped and the sand was kept in a fume hood for 4 hours to evaporate the solvent.
After the sand was dry, 10 cm^3 of the treated sand was dispensed into a 1-oz. plastic cup with bone meal in the bottom as a food source. Each cup was moistened with 4 ml water, infested with five seedcorn maggot second-instar larvae, and covered. Each cup was a replicate and replication was 5×. The test was maintained in an incubator at 22±1° C. in the dark. Mortality (dead+moribund insects) was evaluated 2 days after treatment (DAT) and mean percent mortality was calculated relative to the untreated control.

[8] = test system: root-knot nematodes (Meloidogyne spp.); assay: Test B.1.5 control of root-knot nematodes, drench application on cucumber plants; format: in vivo; conditions: four weeks after infestation
Method: For evaluating control of root-knot nematodes (Meloidogyne spp.) through exposure via drench application, the nematodes were introduced to treated cucumber plants.
The compounds or mixtures were dissolved in acetone at different concentrations. The compounds or mixtures were formulated using a solution containing 50% (v/v) acetone in water with 0.02 wt % Kinetic®. For experimental mixtures, identical volumes of both mixing partners were mixed together to achieve the desired respective concentrations.
Germinated cucumber seeds were planted in 1-oz black plastic cups (one seed per cup) with dry, sifted (#10 sieve) play sand. Treatments were applied as a drench in 7 ml solution to each cup which were held in a fume hood for 1 hour to allow acetone to evaporate. The cups were moved to an environmental chamber (25±2° C., 24 L) and watered daily for the duration of the test. Each cup was a replicate and replication was 5×. At the cucumber's cotyledon stage, each cup was infested with 500 root-knot nematode juveniles (J2s) in 1 ml distilled water.
Four weeks after infestation, cucumber roots were washed off and galls and egg masses were counted. Control was calculated as the reduction in galls or egg masses relative to the untreated control. Mean percent control was calculated for each treatment.

[9] = test system: Alternaria solani; assay: B.2.2 microtest, activity against early blight; format: cell-based; conditions: MTP, 7 days after inoculation

Fc1ccc([C@]2(Cn3cncn3)O[C@H]2c2ccccc2Cl)cc1 (racemic) [Epoxiconazol, Epoxiconazole]
Observed efficacy ([1]; 0.063 ppm): 1
Observed efficacy ([1]; 0.25 ppm): 28
Observed efficacy ([2]; 0.004 ppm): 8
Observed efficacy ([2]; 0.016 ppm): 29
Observed efficacy ([3]; 0.001 ppm): 0
Observed efficacy ([3]; 0.004 ppm): 0
Observed efficacy ([3]; 0.016 ppm): 24

CN(C(=O)c1ccccc1)c1cccc(C(=O)Nc2c(Br)cc(C(F)(C(F)(F)F)C(F)(F)F)cc2C(F)(F)F)c1F [Carboxamide compound of formula I]
Average Control % ([4]; 3 ppm): 33%
Average Control % ([5]; 0.01 ppm compound/soil): 30%
Average Control % 1 DAT ([6]; 3 ppm): 38%
Average Control % 5 DAT ([6]; 3 ppm): 44%
Average Control % ([7]; 0.06 ppm compound/soil): 21%
Average Egg Mass Control % ([8]; 0.3 mg compound/plant): −21%
Average Gall Control % ([8]; 0.3 mg compound/plant): 35%
Observed efficacy ([1]; 0.063 ppm): 2
Observed efficacy ([1]; 1 ppm): 12
Observed efficacy ([1]; 4 ppm): 15
Observed efficacy ([1]; 16 ppm): 4
Observed efficacy ([9]; 1 ppm): 0
Observed efficacy ([9]; 4 ppm): 0
Observed efficacy ([9]; 16 ppm): 0
Observed efficacy ([9]; 63 ppm): 0
Observed efficacy ([2]; 4 ppm): 13
Observed efficacy ([2]; 16 ppm): 15
Observed efficacy ([2]; 63 ppm): 4
Observed efficacy ([3]; 1 ppm): 0
Observed efficacy ([3]; 4 ppm): 0
Observed efficacy ([3]; 16 ppm): 0

CN/C(=N\[N+](=O)[O-])NCc1cnc(Cl)s1 [Clothianidin]
Average Control % ([5]; 0.1 ppm compound/soil): 33%

CNC(=O)c1cc(C#N)cc(C)c1NC(=O)c1cc(Br)nn1-c1ncccc1Cl [Cyantraniliprole, cyantraniliprole]
Average Control % ([4]; 225 ppm): 22%
Average Control % ([5]; 3.1 ppm compound/soil): 23%
Average Control % ([7]; 10 ppm compound/soil): 64%

N#Cc1nn(-c2c(Cl)cc(C(F)(F)F)cc2Cl)c(N)c1[S+]([O-])C(F)(F)F (centres unmarked) [Fipronil]
Average Control % ([4]; 30 ppm): 22%
Average Control % ([5]; 0.03 ppm compound/soil): 27%
Average Control % 1 DAT ([6]; 300 ppm): 13%
Average Control % 5 DAT ([6]; 300 ppm): 31%

Cn1cc(C(=O)Nc2ccccc2-c2cc(F)c(F)c(F)c2)c(C(F)F)n1 [Fluxapyroxad]
Observed efficacy ([2]; 0.004 ppm): 0
Observed efficacy ([2]; 0.063 ppm): 0

O=[N+]([O-])NC1=NCCN1Cc1ccc(Cl)nc1 [Imidacloprid]
Average Control % ([5]; 0.13 ppm compound/soil): 17%
Average Control % ([7]; 3 ppm compound/soil): 18%

COC(=O)N(OC)c1ccccc1COc1ccn(-c2ccc(Cl)cc2)n1 [Pyraclostrobin]
Observed efficacy ([9]; 0.016 ppm): 0
Observed efficacy ([9]; 0.063 ppm): 12
Observed efficacy ([2]; 0.016 ppm): 46

N#C/N=C1\SCCN1Cc1ccc(Cl)nc1 [Thiacloprid]
Average Control % ([5]; 0.2 ppm compound/soil): 37%

CN1COCN(Cc2cnc(Cl)s2)/C1=N\[N+](=O)[O-] [Thiamethoxam]
Average Control % ([4]; 25 ppm): 11%

CC1(C)CCC(=Cc2ccc(Cl)cc2)C1(O)Cn1cncn1 (centres unmarked) [Triticonazol, Triticonazole]
Observed efficacy ([9]; 0.25 ppm): 0
Observed efficacy ([9]; 1 ppm): 23
Observed efficacy ([3]; 0.25 ppm): 41

Abamectin
Average Egg Mass Control % ([8]; 0.008 mg compound/plant): 17%
Average Gall Control % ([8]; 0.008 mg compound/plant): 24%
Average Egg Mass Control % ([8]; 0.017 mg compound/plant): 39%
Average Gall Control % ([8]; 0.017 mg compound/plant): 40%

emamectin
Average Control % ([4]; 800 ppm): 11%
